In patent US20170057917A1, “Polymorphs of Lomitapide and its Salts” (Hetero Research Foundation, priority 2014, published 2017):

Assay: Hygroscopicity of the amorphous form
Type: physicochemical
Settings: solid amorphous form; normally amorphous Forms are hygroscopic

hygroscopicity: non-hygroscopic
Compound: CS(=O)(=O)O.O=C(NC1CCN(CCCCC2(C(=O)NCC(F)(F)F)c3ccccc3-c3ccccc32)CC1)c1ccccc1-c1ccc(C(F)(F)F)cc1 [Amorphous Lomitapide mesylate]
